Experimental data from patent US20060063784A1, “Method of using substituted pyrazolo [1,5-a] pyrimidines” (priority 2004, published 2006).

The molecules below were run on 80S14 (p21-deficient) cells (assay: Cytotoxicity assay using isogenic cell lines: IC50 in 80S14 (p21-deficient) cells, SRB). Conditions: 80S14 (p21-deficient) cells, 5 days, SRB; class symbols; read-out: IC50 for 80S14.
Type: cell-based, human
Protocol: Cytotoxicity Assay Using Isogenic Cell Lines: • 1. 80S14 (p21-deficient) cells were cultured in RPMI 1640 medium (Gibco/Invitrogen Life technologies) supplemented with 10% fetal bovine serum (FBS, Gibco) and 10 μg/ml gentamycin (Gibco). Cells were maintained at 37° C. under 7% CO2 • 2. Cells were plated at 6×10^4/ml (0.2 ml/well; 12,000 cells/well) in 96-well microtiter plates (Falcon or Corning/Costar) and incubated at 37° C. overnight (18-24 hours). • 3. 2-5 μl of the test agent [200 μg/ml stock in 20% DMSO/20 mM HEPES, pH 7.5 (Gibco)] was added to each well to achieve a final concentration of 2-5 μg/ml. Cells were incubated with the test compounds for 5 days at 37° C. • 4. Surviving cells were fixed with 50 μl 50% trichloroacetic acid (Sigma; 10% final concentration) for 1 hour at 4° C. • 5. Plates were rinsed twice with water (0.3 ml per wash using MRD8 robot), and allowed to dry. • 6. Sulforhodamine B (SRB) (Sigma; 0.4% in 1% acetic acid, 50 μl per well; MRD8 robot) was added and plates kept at room temperature for 10 minutes. • 7. Excess dye was removed by washing with 1% acetic acid (3 times, 0.3 ml per wash; MRD8 robot) and allowed to dry. • 8. The dye was solubilized in Tris base (Sigma; 10 mM, 150 μl per well). Plates were kept at room temperature for 30 minutes to allow the dye to diffuse. • 9. Absorbance was measured at 540 nm. • 10. The percentage of cells surviving drug treatment relative to control wells (no drug) was determined. • 11. The difference in % cell survival between the two cell lines was calculated. • 12. Compounds producing a difference score of >50 were considered to be selective for the p21-deficient cells and were evaluated further: Determination of selectivity of compounds for p21−/− cells: • 1. 80S14 cells were cultured as described above. • 2. Cells were seeded in 96-well microtiter plates at 12,000 cells/well (either 0.15 ml/well of 8×10^4 cells/ml suspension, or 0.2 ml/well of 6×10^4 cells/ml suspension). Plates were incubated at 37° C. overnight (18-24 hours). • 3. Serial dilutions of the test agent were added to each well. Dilutions were prepared either in 40% DMSO/20% methanol/20 mM HEPES, pH 7.5 (Gibco) or directly in growth medium. One of two dose ranges were used: 5 pM to 50 μM or 170 pg/ml to 10 μg/ml. Cells were incubated with the test compounds for 5 days at 37° C. • 4. Surviving cells were fixed with 50 μl 50% trichloroacetic acid (Sigma; 10% final concentration) for 1 hour at 4° C. • 5. Plates were rinsed extensively in water, and allowed to dry. • 6. Sulforhodamine B (Sigma; 0.4% in 1% acetic acid, 70 μl per well) was added and plates kept at room temperature for 10 minutes. • 7. Excess dye was removed by washing 5 times with 1% acetic acid and plates were allowed to dry. • 8. The dye was solubilized in Tris base (Sigma; 10 mM, 150 μl per well). Plates were placed on a titer plate shaker (Lab Line Instruments) for 5 minutes to allow the dye to diffuse. • 9. Absorbance was measured at 560 nm.
10. The drug concentration that inhibits cell proliferation by 50% relative to untreated controls (IC50) was determined from cytotoxicity curves.
“3-(3,5-Dimethylphenyl)-7-{3-[2-(2-piperidin-1-ylethyl)-2H-tetrazol-5-yl]phenyl}pyrazolo[1,5-a]pyrimidine [Example 500]” gave an IC50 of 1 to 10 µM.
For “1-Methyl-N-{3-[3-(thien-2-ylcarbonyl)pyrazolo[1,5-a]pyrimidin-7-yl]phenyl}piperidine-4-carboxaamide [Example 417]”, the IC50 was 10 to 50 µM.

Same assay, conditions: 80S14 p21-deficient cells, 5 days incubation, SRB; read-out: IC50 for 80SI4
`CC(=O)OCC(=O)Nc1cccc(-c2ccnc3c(C(=O)c4cccs4)cnn23)c1` [Example 62, 2-oxo-2-({3-[3-(thien-2-ylcarbonyl)pyrazolo[1.5-a]pyrimidin-7-yl]phenyl]amino)ethyl acetate] showed an IC50 of 1 to 10 µM.
Work on `O=C(Nc1cccc(-c2ccnc3c(C(=O)c4cccs4)cnn23)c1)c1ccc(Cl)cc1` [Example 89] yielded an IC50 of 1 to 10 µM.
`CC(C)C[C@H](N)C(=O)Nc1cccc(-c2ccnc3c(C(=O)c4cccs4)cnn23)c1` [Example 79, N-1-{3-[3-(thien-2-ylcarbonyl)pyrazolo[1,5-a]pyrimidin-7-yl]phenyl}-L-leucinamide] was tested, and the IC50 was 10 to 50 µM.

Same assay, conditions: Homo sapiens, 80S14, 120 h, read-out: IC50 for 80S14 (uM)
For `CC(C)CC(=O)Nc1cccc(-c2ccnc3c(C(=O)C4CCCC4)cnn23)c1` [Example 296, N-{3-[3-(Cyclopentylcarbonyl)pyrazolo[1,5-a]pyrimidin-7-yl]phenyl}-3-methylbutanamide], the IC50 was 1 to 10 µM.
`CC(C)OC(=O)Nc1cccc(-c2ccnc3c(C(=O)c4ccccc4)cnn23)c1` [Example 294, Isopropyl 3-(3-benzoylpyrazolo[1,5-a]pyrimidin-7-yl)phenylcarbamate] showed an IC50 of under 1 µM.

Same assay, conditions: Homo sapiens, 120 h; 80S14 (p21-deficient) cells, 5 days, SRB; class symbols; read-out: IC50 for 80S14
`O=C(Nc1cccc(-c2ccnc3c(C(=O)c4ccco4)cnn23)c1)c1ccccc1` [Example 300, N-{3-[3-(2-Furoyl)pyrazolo[1,5-a]pyrimidin-7-yl]phenyl}benzamide] gave an IC50 of 1 to 10 µM.
For `Cc1ccc(C(=O)c2cnn3c(-c4cccc(N(C)C(=O)C5CC5)c4)ccnc23)cc1` [Example 268, N-Methyl-N-[3-[3-(4-methylbenzoyl)pyrazolo[1,5-a]pyrimidin-7-yl]phenyl}-cyclopropanecarboxamide], the IC50 was 10 to 50 µM.
Molecule `O=C(c1ccco1)c1cnn2c(-c3cccc(N4CCCC4=O)c3)ccnc12` [Example 228, 1-[3-[3-(2-Furanylcarbonyl)pyrazolo-[1,5-a]pyrimidin-7-yl]phenyl]-2-pyrrolidinone] has an IC50 of 10 to 50 µM.
Molecule `Cc1ccc(C(=O)c2cnn3c(-c4cccc(NC(=O)C5CC5)c4)ccnc23)s1` [Example 252, N-[3-[3-[(5-Methyl-2-thienyl)carbonyl]pyrazolo[1,5-a]pyrimidin-7-yl]phenyl}-cyclopropanecarboxamide] has an IC50 of 1 to 10 µM.
Molecule `CCC(C)CNc1cccc(-c2ccnc3c(C(=O)c4cccs4)cnn23)c1` (stereo not drawn) [Example 402, (7-{3-[(2-Methylbutyl)amino]phenyl}pyrazolo[1,5-a]pyrimidin-3-yl)(thien-2-yl)methanone] has an IC50 of 1 to 10 µM.
For `CCNc1ccc(-c2ccnc3c(C(=O)c4cccs4)cnn23)cc1` [Example 271, [7-[4-(Ethylamino)phenyl]pyrazolo[1,5-a]pyrimidin-3-yl]-2-thienyl-methanone], the IC50 was 10 to 50 µM.
Work on `CCN(C(=O)C1CC1)c1cccc(-c2ccnc3ccnn23)c1` [Example 254, N-Ethyl-N-(3-pyrazolo[1,5-a]pyrimidin-7-ylphenyl)-cyclopropanecarboxamide] yielded an IC50 of 10 to 50 µM.
`O=C(c1ccccn1)c1cnn2c(-c3cccc(NC(=O)C4CC4)c3)ccnc12` [Example 337, N-{3-[3-(Pyridin-2-ylcarbonyl)pyrazolo[1,5-a]pyrimidin-7-yl]phenyl}cyclopropanecarboxamide] gave an IC50 of 10 to 50 µM.

Same assay, conditions: Homo sapiens, 120 h; 80S14 p21-deficient cells, 5 days incubation, SRB; read-out: IC50 for 80SI4
Molecule `O=C(/C=C/c1ccccc1)Nc1cccc(-c2ccnc3c(C(=O)c4cccs4)cnn23)c1` [Example 71, (2E)-3-phenyl-N-{3-[3-(thien-2-ylcarbonyl)pyrazolo[1,5-a]pyrimidin-7-yl]phenyl}prop-2-enamide] has an IC50 of 1 to 10 µM.
In the case of `CCCCOC(=O)Nc1cccc(-c2c(C)cnc3c(C(=O)c4cccs4)cnn23)c1` [Example 209, butyl 3-[6-methyl-3-(thien-2-ylcarbonyl)pyrazolo[1,5-a]pyrimidin-7-yl]phenylcarbamate], the IC50 is reported as 10 to 50 µM.
`O=C(CNC(=O)C1CC1)Nc1cccc(-c2ccnc3c(C(=O)c4cccs4)cnn23)c1` [Example 126, N-[2-oxo-2-({3-[3-(thien-2-ylcarbonyl)pyrazolo[1,5-a]pyrimidin-7-yl]phenyl}amino)ethyl]cyclopropanecarboxamide] gave an IC50 of 10 to 50 µM.
Work on `O=C(Nc1ccccc1)Nc1cccc(-c2ccnc3c(C(=O)c4cccs4)cnn23)c1` [Example 1, N-phenyl-N′-{3-[3-(thien-2-ylcarbonyl)pyrazolo[1,5-a]pyrimidin-7-yl]phenyl}urea] yielded an IC50 of under 1 µM.
In the case of `Cc1cnc2c(C(=O)c3cccs3)cnn2c1-c1cccc(NC(=O)C2CCCC2)c1` [Example 218, N-{3-[6-methyl-3-(thien-2-ylcarbonyl)pyrazolo[1,5-a]pyrimidin-7-yl]phenyl}cyclopentanecarboxamide], the IC50 is reported as 10 to 50 µM.
In the case of `CCCC(OC(=O)Nc1cccc(-c2ccnc3c(C(=O)c4cccs4)cnn23)c1)C(C)C` (stereo not drawn) [Example 192, 1-isopropylbutyl 3-[3-(thien-2-ylcarbonyl)pyrazolo[1,5-a]pyrimidin-7-yl]phenylcarbamate], the IC50 is reported as 1 to 10 µM.
`COc1ccc(S(=O)(=O)Nc2cccc(-c3ccnc4c(C(=O)c5cccs5)cnn34)c2)cc1` [Example 36, 4-methoxy-N-{3-[3-(thien-2-ylcarbonyl)pyrazolo[1,5-a]pyrimidin-7-yl]phenyl}benzenesulfonamide] showed an IC50 of 1 to 10 µM.
Work on `COc1ccc(C(=O)Nc2cccc(-c3ccnc4c(C(=O)c5cccs5)cnn34)c2)cc1` [Example 88, 4-methoxy-N-{3-[3-(thien-2-ylcarbonyl)pyrazolo[1,5-a]pyrimidin-7-yl]phenyl]benzamide] yielded an IC50 of under 1 µM.
With `CCC(C)C(=O)NCC(=O)Nc1cccc(-c2ccnc3c(C(=O)c4cccs4)cnn23)c1` (stereo not drawn) [Example 130, 2-methyl-N-[2-oxo-2-({3-[3-(thien-2-ylcarbonyl)pyrazolo[1,5-a]pyrimidin-7-yl]phenyl}amino)ethyl]butanamide] the IC50 was 10 to 50 µM.
`O=C(c1cccs1)c1cnn2c(-c3cccc(NS(=O)(=O)c4ccc(F)cc4)c3)ccnc12` [Example 34, 4-fluoro-N-{3-[3-(thien-2-ylcarbonyl)pyrazolo[1,5-a]pyrimidin-7-yl]phenyl}benzenesulfonamide] was tested, and the IC50 was under 1 µM.
For `COc1cccc(OC)c1C(=O)Nc1cccc(-c2ccnc3c(C(=O)c4cccs4)cnn23)c1` [Example 101, 2,6-dimethoxy-N-{3-[3-(thien-2-ylcarbonyl)pyrazolo[1,5-a]pyrimidin-7-yl]phenyl}benzamide], the IC50 was under 1 µM.
For `CCCCCCC(=O)Nc1cccc(-c2ccnc3c(C(=O)c4cccs4)cnn23)c1` [Example 151, N-{3-[3-(thien-2-ylcarbonyl)pyrazolo[1,5-a]pyrimidin-7-yl]phenyl}heptanamide], the IC50 was 1 to 10 µM.
`Cc1ccccc1CC(=O)Nc1cccc(-c2ccnc3c(C(=O)c4cccs4)cnn23)c1` [Example 68, 2-(2-methylphenyl)-N-{3-[3-(thien-2-ylcarbonyl)pyrazolo[1,5-a]pyrimidin-7-yl]phenyl}acetamide] was tested, and the IC50 was under 1 µM.
`O=C(Nc1cccc(-c2ccnc3c(C(=O)c4cccs4)cnn23)c1)C(Cl)=C(Cl)Cl` [Example 144, 2,3,3-trichloro-N-{3-[3-(thien-2-ylcarbonyl)pyrazolo[1,5-a]pyrimidin-7-yl]phenyl}acrylamide] gave an IC50 of under 1 µM.
`C=CCCOC(=O)NCC(=O)Nc1cccc(-c2ccnc3c(C(=O)c4cccs4)cnn23)c1` [Example 118, but-3-enyl-2-oxo-2-({3-[3-(thien-2-ylcarbonyl)pyrazolo[1,5-a]pyrimidin-7-yl]phenyl}amino)ethylcarbamate] gave an IC50 of 1 to 10 µM.
